Assay results from paper PMC2852842, “Marine Natural Meroterpenes: Synthesis and Antiproliferative Activity” (Marine Drugs, 2010).
Values after ≈ are worked out from the molar mass of the structure shown. Like-named read-outs stand apart in the source and are kept apart here. Each block holds one compound with its values, some of them ahead of it.

Assays:
[1] = test system: Escherichia coli; test: Microtiter Broth Dilution antibacterial assay; type: cell-based; conditions: for antibacterial effect (in words): E. coli
Description: (§1) The Microtiter Broth Dilution Method on gram negative (Escherichia coli) and gram positive (Micrococcus luteus) bacteria was used. Meroterpenes dissolved in DMSO were added to bacteria suspensions (5:100 v:v) for 24 hours. The assay was carried out in triplicate. Bacterial growth was evaluated by absorbance measurement (630 nm). The minimum concentration that inhibits (MIC) bacterial growth was determined for each compound on each bacterial strain.
(§2) The antibacterial assay used was based on the previously described method published by the […].

[2] = test system: Micrococcus luteus; test: Microtiter Broth Dilution antibacterial assay; type: cell-based; conditions: for antibacterial effect (in words): M. luteus; for MIC: Micrococcus luteus, 24 h
Description: as §1, §2

[3] = test system: MCF7, PA1, PC3, L-929 cells and human normal fibroblasts; test: Resazurin reduction test (RRT) cytotoxicity, whole panel of cell lines; type: cell-based; conditions: span over the cell lines, 48 hour exposure, read-out: IC50, varied with the cell lines
Description: To provide information on their antiproliferative activity against solid cancers, the six meroterpenes were tested on three human carcinoma cell lines corresponding to cancers commonly observed in Western countries: MCF7 (breast), PA1 (ovary) and PC3 (prostate). To obtain additional information on their specificity for human cell lines and their specificity for cancer versus normal cell lines, each compound was tested versus L-929 murine immortalized cells and human normal fibroblasts. To mimic what happens in vivo, assays were carried out on exponentially growing cells cultured in the presence of 10% serum. The growth inhibitory effect was determined by measuring, after a 48 hour exposure to each chemical, the metabolic activity of treated and control cultures using the resazurin reduction test (RRT), which measures the amount of fluorescent resofurin produced by living cells. […] A dose-dependent inhibition of cell proliferation was only observed for epiconicol (3a). […]
The cytotoxicity of each treatment was determined after a 48 h exposure to each chemical (6 concentrations in triplicate, each in DMSO 0.5%) by means of the resazurin reduction test (RRT) that measures the amount of fluorescent resorufin produced by living cells. […] IC50 values (mean ± S.D.) were calculated with the ALLFIT program and were expressed in μM.

[4] = test system: MCF7 breast adenocarcinoma cells; test: Resazurin reduction test (RRT) cytotoxicity; type: cell-based, human; conditions: for IC50: Homo sapiens
Description: (§3) To provide information on their antiproliferative activity against solid cancers, the six meroterpenes were tested on three human carcinoma cell lines corresponding to cancers commonly observed in Western countries: MCF7 (breast), PA1 (ovary) and PC3 (prostate). To obtain additional information on their specificity for human cell lines and their specificity for cancer versus normal cell lines, each compound was tested versus L-929 murine immortalized cells and human normal fibroblasts. To mimic what happens in vivo, assays were carried out on exponentially growing cells cultured in the presence of 10% serum. The growth inhibitory effect was determined by measuring, after a 48 hour exposure to each chemical, the metabolic activity of treated and control cultures using the resazurin reduction test (RRT), which measures the amount of fluorescent resofurin produced by living cells. […] A dose-dependent inhibition of cell proliferation was only observed for epiconicol (3a). […] The toxicity of epiconicol observed in our model is in agreement with data obtained by Caroll and co-workers on a panel of cancer cells.
(§4) Human primary fibroblasts were purchased from Biopredic International (Rennes, France). Immortalized murine L929 cells and human MCF7 breast adenocarcinoma, PA1 ovary teratocarcinoma and PC3 androgen-resistant prostate carcinoma cells were obtained from the European Collection of Cell Cultures (ECACC, Salibury, UK). All were cultured at 37 °C under 5% CO2 and maintained in Eagle’s minimum essential medium (Gibco-BRL, Paisley, Scotland) supplemented with 10% fetal calf serum, vitamins and antibiotics (Gibco™, Cergy-Pontoise, France) as described previously.
(§5) The cytotoxicity of each treatment was determined after a 48 h exposure to each chemical (6 concentrations in triplicate, each in DMSO 0.5%) by means of the resazurin reduction test (RRT) that measures the amount of fluorescent resorufin produced by living cells. Assays were carried out at 530/590 nm accordingly to the procedure described by Barthomeuf et al.. IC50 values (mean ± S.D.) were calculated with the ALLFIT program and were expressed in μM.

[5] = test system: PA1 ovary teratocarcinoma cells; test: Resazurin reduction test (RRT) cytotoxicity; type: cell-based, human; conditions: for IC50: Homo sapiens
Description: as §3, §4, §5

[6] = test system: Sphaerechinus granularis eggs; test: Inhibition of sea urchin egg division; type: cell-based; conditions: for IC50: read-out: IC50 S. granularis
Description: (§6) For cytotoxic assays on sea urchins, meroterpenes were dissolved in an egg suspension (described in the experimental section), and their ability to inhibit 50% of cell division (IC50) was estimated. Each experiment was carried out in triplicate and an average taken.
(§7) For antiproliferative assays on sea urchin eggs, we used a previously described method.

[7] = test system: Paracentrotus lividus eggs; test: Inhibition of sea urchin egg division; type: cell-based
Description: as §6, §7

[8] = test system: Micrococus luteus; design: method as in PMID 17448456; conditions: cited from earlier work
[9] = test system: Streptococcus faecalis; design: method as in PMID 3404153, PMID 7608321; conditions: cited from earlier work
[10] = test system: Staphyclococcus aureus; design: method as in PMID 3404153, PMID 7608321; conditions: cited from earlier work
[11] = test system: S.s granularis eggs; test: HPLC analysis of cytoplasmic extracts of treated sea urchin eggs; type: in vitro ADME, Sphaerechinus granularis; conditions: eggs treated with 5 μM
Description: To test the latter hypothesis, S.s granularis eggs were treated with 5 μM of methoxyconidiol, a concentration that inhibits their division. Sea urchin eggs were incubated 1, 40 and 90 minutes post-fertilization (p.f.) in the presence of methoxyconidiol. Cytoplasmic extracts of treated and control eggs were further prepared. Organic extracts of the cytoplasmic preparations were finally obtained and analyzed by HPLC (Figure 3).
Figure 3 HPLC analysis of methoxyconidiol (System WATERS, column: synergy 4 μm RP max; elution water: methanol under a gradient; UV detection 285 nm; flow: 0.3 mL/min) A: control compound (methoxyconidiol) B: analysis after Solid Phase Extraction at 1, 40 and 90 minutes after fertilization (min p.f.).
Preparation of cytoplasmic extracts was based on the technique described by Collas and Poccia. Gametes of P. lividus were collected in two separate beakers. Sperm was maintained undiluted on ice and eggs were stored at 19 °C until use. Sperm was diluted to 10% in Filtered Sea Water (FSW) and eggs were at 26 eggs/μL in FSW. […]
Cytoplasmic extracts of treated and control eggs were extracted with CH3OH and CH2Cl2 and analyzed by HPLC. […] This fraction was analyzed in HPLC (column: Phenomenex synergy 4μ max RP; elution with water and methanol under gradient, starting from 30% to 0% of water during 15 minutes; flow: 0.3 mL/min; detection photodiode array, UV at 285 nm).

[12] = test system: human normal fibroblasts; test: Resazurin reduction test (RRT) cytotoxicity; type: cell-based; conditions: Fibroblast
Description: as §3, §4, §5

[13] = test system: PC3 androgen-resistant prostate carcinoma cells; test: Resazurin reduction test (RRT) cytotoxicity; type: cell-based; conditions: Homo sapiens
Description: as §3, §4, §5

[14] = test system: L-929 murine immortalized cells; test: Resazurin reduction test (RRT) cytotoxicity; type: cell-based; conditions: Mus musculus
Description: as §3, §4, §5

[15] = test system: sea urchin embryos; design: method as in PMID 17448456; conditions: cited from earlier work
[16] = Sphaerechinus granularis, 85 min
[17] = Paracentrotus lividus, 85 min, read-out: IC50 P. lividus, egg division, 85 minutes after fertilization

SMILES: CC1=C[C@@H]2c3cc(O)ccc3OC(C)(C)[C@@H]2CC1 [3a, epiconicol]
antibacterial effect (in words) [1]: weakly active
MIC ([1]; Escherichia coli, 24 h): 800 µM (≈ 195 µg/mL)
antibacterial effect (in words) [2]: weakly active
MIC [2]: 100 µM (≈ 24.4 µg/mL)
IC50 [3]: 37 to 69 µM
cultures killed ([4]; MCF7, at 5 μM): 30%
cultures killed ([5]; PA1, at 5 μM): 30%
IC50 [6, 16]: 9.8 ± 1.3 µM

SMILES: COc1ccc2c(c1)[C@H]1C=C(C)CC[C@H]1C(C)(C)O2 (relative stereo) [3b]
antibacterial effect (in words) [1]: totally inactive
antibacterial effect (in words) [2]: totally inactive
IC50 [7, 17]: > 25 µM
IC50 [6, 16]: > 25 µM

IC50 ([7]; Paracentrotus lividus, 85 min, egg division, 85 minutes after fertilization, read-out: IC50 P. lividus): > 25 µM
IC50 ([6]; Sphaerechinus granularis, 85 min, egg division, 85 minutes after fertilization): > 25 µM
SMILES: COc1ccc(O)c([C@@H]2C=C(C)CC[C@@H]2C(C)(C)OC)c1 (relative stereo) [5b]

SMILES: CC(C)=CCCC1(C)C=Cc2cc(O)ccc2O1 (centres unmarked) [cordiachromene A]
growth inhibition (in words) [8]: moderately inhibits
growth inhibition (in words) [9]: moderately inhibits
growth inhibition (in words) [10]: moderately inhibits

SMILES: COC(C)(C)[C@H]1CCC(C)=C[C@H]1c1cc(O)ccc1O [5a, methoxyconidiol]
level of the compound in cytoplasmic extracts during incubation ([11]; 1, 40 and 90 minutes post-fertilization, HPLC): did not decrease significantly
penetration through sea urchin cell membranes ([11]; presence in the cytoplasm): penetrates through sea urchin cell membranes
melting point: 197 °C
IC50 ([12]; human normal fibroblasts, 48 hour exposure, 10% serum, RRT, read-out: IC50): > 100 µM
IC50 ([13]; PC3, 48 hour exposure, 10% serum, RRT, read-out: IC50): > 100 µM
IC50 ([14]; L929, L-929, 48 hour exposure, 10% serum, RRT, read-out: IC50): > 100 µM
effect on sea urchin embryos during cell division [15]: disturbs mitotic spindle assembly leading to a cell cycle arrest during metaphase/anaphase transition
IC50 ([4]; MCF7, 48 hour exposure, 10% serum, RRT, read-out: IC50): > 100 µM
IC50 ([5]; PA1, 48 hour exposure, 10% serum, RRT, read-out: IC50): > 100 µM
IC50 ([7]; egg division, 85 minutes after fertilization, listed as methoxyconidiol, read-out: IC50 P. lividus): 0.8 µM
IC50 ([7]; egg division, 85 minutes after fertilization, read-out: IC50 P. lividus): 4.3 ± 0.1 µM
IC50 ([6]; egg division, 85 minutes after fertilization, listed as methoxyconidiol): 4.3 µM
IC50 ([6]; egg division, 85 minutes after fertilization): 0.8 µM

SMILES: Cc1ccc2c(c1)-c1cc(O)ccc1OC2(C)C [4a, didehydroconicol]
antibacterial effect (in words) [2]: weakly active
MIC [2]: 500 µM (≈ 120 µg/mL)
IC50 ([12]; Homo sapiens, 48 h): > 100 µM
IC50 ([13]; 48 h): > 100 µM
IC50 ([14]; L929, 48 h): > 100 µM
IC50 ([4]; MCF7, 48 h): > 100 µM
IC50 ([5]; 48 h): > 100 µM
IC50 [7, 17]: 11.3 ± 0.8 µM
activity on egg division (in words) ([6]; S. granularis eggs): inactive
IC50 [6, 16]: > 25 µM

SMILES: COc1ccc2c(c1)-c1cc(C)ccc1C(C)(C)O2 [4b, O-methyldidehydroconicol]
antibacterial effect (in words) [1]: totally inactive
antibacterial effect (in words) [2]: totally inactive
IC50 [7, 17]: > 25 µM
IC50 [6, 16]: > 25 µM
